Laboratory results from patent US8603493B2, “Carbosilane dendrimers, preparation method thereof and use of same” (Dendrico, S.L., priority 2005, dated 2013).

What was measured:
[1] = tested on: peripheral blood mononuclear cells (PBMC); assay: Mitochondrial activity: MTT on PBMC; assay type: cell-based, human; conditions: for Cell viability after incubation with dendrimers according to MTT: 48 hours, relative to untreated control; for mitochondrial viability (comparison among dendrimers): increasing concentrations of CBS or SF
Method: The toxicity of dendrimers IM8, IM16, ClNH4, NN, Phe and the commercial controls SF (Superfect) and G4 were tested. Different quantities were taken of each one of them so that the final concentrations with which the cells were incubated were 1 μM, 5 μM, 10 μM, 20 μM and 100 μM.
The blood came from adult donors or the umbilical cord of health newborns. Said blood was diluted ½ with PBS and it was centrifuged in a Ficoll gradient. After said centrifugation, the PBMC halo was recovered and two subsequent washing-centrifuging cycles were carried out. The resulting PBMC were resuspended in complete culture medium with 10% FCS, antibiotics and glutamine.
100 μl of 10% complete medium of foetal calf serum, antibiotics and glutamine were added to a volume of 60 μl of RPMI with the corresponding dendrimer tested. 160 μl were then added to the cells seeded in 340 μl, completing a final volume of 500 μl. The cells were incubated in this way for 48 hours and then the effect of the incubation with the dendrimers was evaluated by its visual examination and by the evaluation of the mitochondrial activity.
A curve of mitochondrial activity was performed of the dendrimer concentration after 48 hours. […] It is a […] test based on the selective capacity of the cells viable for reducing 3-(4,5-dimethylthiazol-2-il)-2,5-diphenyl tetrazolium bromide in insoluble formazan crystals. After 48 hours of incubation of the PBMC with different concentrations of dendrimers in a 96-well plate (100,000/well), the supernatant which contained dendrimer was removed and it was replaced by 200 μl of a culture medium without serum or red phenol (Optimem). To avoid the loss of cells in this step and subsequently of formazan, a modification had been made of the protocol, seeding the PBMC in total human plasma fibronectin (Sigma®) at a concentration of 5-10 μg/ml, so that during the 4-hour incubation they fixed to the bottom of the well. In addition to the 200 μl of Optimem, 20 μl of filtered MTT were added to achieve its sterility (Thiazolyl Blue, Sigma®) in PBS pH 7.4 at a concentration of 5 mg/ml to achieve a final concentration per well of 0.5 mg MTT/ml. After 4 hours of incubation at 37° C. with 5% CO2 atmosphere, the plate was centrifuged at 2000 rpm and the supernatant with the excess MTT that had not reacted was subsequently removed. The formazan crystals were observed under a phase contrast microscope and later dissolved with 200 μl of dimethyl sulfoxide (DMSO). The plate was stirred at 700 rpm in an Eppendorf® stirrer-heater to ensure the correct dissolution of said crystals. The concentration of formazan ([A]) was determined by spectrometry using a plate reader at a wavelength of 570 nm with a reference of 690 nm. The spectrophotometry was calibrated to zero using Optimem without cells. The relative cell viability (%) with respect to the control (untreated cells), based on mitochondrial activity, was calculated based on this formula: [A] test/[A] control×100. Each dendrimer concentration was tested in triplicate, following the guidelines of the ATCC.

[2] = tested on: PBMC; assay: Staining with Trypan Blue of PBMC treated with dendriplexes or dendrimers; conditions: 72 hours, (+/−)=2/1, IM8 3.93 μM, IM16 1.99 μM, ClNH4 3.98 μM, Phe 1.96 μM, NN 3.94 μM, SF 0.68 μM, G4 100 μM, PPT 0.88 μM (0.34 μM with SF, 1 μM with G4), n = 100 cells per count
[3] = tested on: ODN PPT; assay: Stability of the dendriplexes in aqueous solution in accordance with time; assay type: physicochemical; conditions: after 24 hours
Method: Different samples of dendriplexes were prepared in aqueous solution formed between the ODN PPT and dendrimers IM8, IM16 and NN at a 2/1 charge ratio according to Example 31 and electrophoresis was performed after different times since the preparation of the samples, specifically 0 hours, 6 hours and 24 hours. During those times, the dendriplexes were maintained in conditions which imitate the physiological conditions: 37° C., in 5% CO2 atmosphere. The results are shown in FIG. 5, wherein the gel of FIG. 5a corresponds to the sample of 0 hours, that of FIG. 5b to the samples after 6 hours and that of FIG. 5c to the samples after 24 hours. In the three cases, a, b and c, the samples appear in the lanes following this order: […]

[4] = tested on: PBMC; assay: Lymphoproliferative test (tritiated thymidine); assay type: cell-based, human; conditions: 5 days, average of triplicate
Method: To evaluate the antigenic capacity of CBS dendrimers, a lymphoproliferative test was performed. The experiment was prepared in triplicate in a 96-well flat bottomed plate (100,000 cells per well in 200 μl of complete human AB medium with antibiotics, glutamine and 10% AB serum). […] After 5 days of incubation at 37° C. with 5% atmosphere of CO2 100 μl of supernatant was removed, then adding 100 μL of a medium with an isotopic intercalating agent of DNA, tritiated thymidine (prepared with 10% AB medium and Thymidine 1/100). The plate was then filtered using a Harvester passing its content through a filter, which was left to dry overnight (approx. 16 hours). After this period, a sheet of Methylex® containing scintillation medium was heat-melted, and it was read in a gamma camera to evaluate the number of counts (greater the counts, more proliferation). The results, which are shown below in Table 8, are expressed as tritiated thymidine counts per minute (cpm). Each result of each concentration was performed in triplicate, the value which appears in the table being the average of the 3. The PHA and the control were tested 12 times.

Structure (SMILES)	Cell viability after incubation with dendrimers according to MTT ([1]; 1 μM)	Cell viability after incubation with dendrimers according to MTT ([1]; 5 μM)	Cell viability after incubation with dendrimers according to MTT ([1]; 10 μM)	Cell viability after incubation with dendrimers according to MTT ([1]; 20 μM)	Cell viability after incubation with dendrimers according to MTT ([1]; 100 μM)	TB+ (%), cells stained with Trypan Blue [2]	ODN released from dendrimer [3]	mitochondrial viability (comparison among dendrimers) [1]	Measurement of the scintillation counter (tritiated thymidine counts) ([4]; 2 μM)	Measurement of the scintillation counter (tritiated thymidine counts) ([4]; 5 μM)
C[Si](C)(CCCN)CCC[Si](C)(CCC[Si](C)(C)CCCN)CCC[Si](CCC[Si](C)(CCC[Si](C)(C)CCCN)CCC[Si](C)(C)CCCN)(CCC[Si](C)(CCC[Si](C)(C)CCCN)CCC[Si](C)(C)CCCN)CCC[Si](C)(CCC[Si](C)(C)CCCN)CCC[Si](C)(C)CCCN.Cl.Cl.Cl.Cl.Cl.Cl.Cl.Cl [ClNH4, 2G-[Si(CH2)3NH3^+Cl^−]8]	65.5%	47%	40%	16%	14%	15.7%	–	–	–	–
C[N+](C)(C)CCO[Si](C)(CCC[Si](C)(CCC[Si](CCC[Si](C)(CCC[Si](C)(OCC[N+](C)(C)C)OCC[N+](C)(C)C)CCC[Si](C)(OCC[N+](C)(C)C)OCC[N+](C)(C)C)(CCC[Si](C)(CCC[Si](C)(OCC[N+](C)(C)C)OCC[N+](C)(C)C)CCC[Si](C)(OCC[N+](C)(C)C)OCC[N+](C)(C)C)CCC[Si](C)(CCC[Si](C)(OCC[N+](C)(C)C)OCC[N+](C)(C)C)CCC[Si](C)(OCC[N+](C)(C)C)OCC[N+](C)(C)C)CCC[Si](C)(OCC[N+](C)(C)C)OCC[N+](C)(C)C)OCC[N+](C)(C)C.[I-].[I-].[I-].[I-].[I-].[I-].[I-].[I-].[I-].[I-].[I-].[I-].[I-].[I-].[I-].[I-] [IM16, 2G-[Si(OCH2CH2NMe3^+I^−)2]8]	94%	99%	63%	37%	11%	18.5%	~100%	greater mitochondrial viability	175 cpm	141 cpm
C[N+](C)(C)CCOc1cc(CO[Si](C)(C)CCC[Si](C)(CCC[Si](CCC[Si](C)(CCC[Si](C)(C)OCc2cc(OCC[N+](C)(C)C)cc(OCC[N+](C)(C)C)c2)CCC[Si](C)(C)OCc2cc(OCC[N+](C)(C)C)cc(OCC[N+](C)(C)C)c2)(CCC[Si](C)(CCC[Si](C)(C)OCc2cc(OCC[N+](C)(C)C)cc(OCC[N+](C)(C)C)c2)CCC[Si](C)(C)OCc2cc(OCC[N+](C)(C)C)cc(OCC[N+](C)(C)C)c2)CCC[Si](C)(CCC[Si](C)(C)OCc2cc(OCC[N+](C)(C)C)cc(OCC[N+](C)(C)C)c2)CCC[Si](C)(C)OCc2cc(OCC[N+](C)(C)C)cc(OCC[N+](C)(C)C)c2)CCC[Si](C)(C)OCc2cc(OCC[N+](C)(C)C)cc(OCC[N+](C)(C)C)c2)cc(OCC[N+](C)(C)C)c1.[I-].[I-].[I-].[I-].[I-].[I-].[I-].[I-].[I-].[I-].[I-].[I-].[I-].[I-].[I-].[I-] [Phe, 2G-[Si(OCH2—(C6H3)-3,5-(OCH2CH2NMe3^+I^−)2)]8]	83%	77%	71%	54%	14%	11.3%	–	greater mitochondrial viability	146 cpm	170 cpm
CN(CCO[Si](C)(C)CCC[Si](C)(CCC[Si](CCC[Si](C)(CCC[Si](C)(C)OCCN(C)CC[N+](C)(C)C)CCC[Si](C)(C)OCCN(C)CC[N+](C)(C)C)(CCC[Si](C)(CCC[Si](C)(C)OCCN(C)CC[N+](C)(C)C)CCC[Si](C)(C)OCCN(C)CC[N+](C)(C)C)CCC[Si](C)(CCC[Si](C)(C)OCCN(C)CC[N+](C)(C)C)CCC[Si](C)(C)OCCN(C)CC[N+](C)(C)C)CCC[Si](C)(C)OCCN(C)CC[N+](C)(C)C)CC[N+](C)(C)C.[I-].[I-].[I-].[I-].[I-].[I-].[I-].[I-] [NN, 2G-[Si(O(CH2)2N(Me)(CH2)2NMe3^+I^−)]8]	87%	68%	66%	32%	9%	10.6%	~100%	greater mitochondrial viability	145 cpm	160 cpm
C[N+](C)(C)CCO[Si](C)(C)CCC[Si](C)(CCC[Si](CCC[Si](C)(CCC[Si](C)(C)OCC[N+](C)(C)C)CCC[Si](C)(C)OCC[N+](C)(C)C)(CCC[Si](C)(CCC[Si](C)(C)OCC[N+](C)(C)C)CCC[Si](C)(C)OCC[N+](C)(C)C)CCC[Si](C)(CCC[Si](C)(C)OCC[N+](C)(C)C)CCC[Si](C)(C)OCC[N+](C)(C)C)CCC[Si](C)(C)OCC[N+](C)(C)C.[I-].[I-].[I-].[I-].[I-].[I-].[I-].[I-] [IM8, 2G-[Si(OCH2CH2NMe3^+I^−)]8]	98%	60%	18%	12%	10%	17.1%	~100%	–	144 cpm	149 cpm
